Experiments:
[1] = test system: histamine H2 -receptors; assay: inhibition of histamine-stimulated secretion of gastric acid from the lumen-perfused stomachs of rats anaesthetised with urethane (lumen-perfused rat test); format: in vivo; conditions: times more active than the reference compound
Source text: These are actions of histamine which, according to Ash and Schild, Brit. J. Pharmac. Chemother. 27 247 (1966), are not mediated by histamine H1 -receptors.
(§1) The measurement of inhibition of histamine-stimulated secretion of gastric acid from the lumen-perfused stomachs of rats anaesthetised with urethane, and the measurement of inhibition of histamine-induced tachycardia in the isolated guinea pig right atrium, are detailed in U.S. Pat. No. 4,385,058.

[2] = test system: histamine H2 -receptors; assay: inhibition of histamine-induced tachycardia in the isolated guinea pig right atrium (guinea pig atrium test); format: cell-based; conditions: times more active than the reference compound
Source text: as §1

[3] = test system: histamine H2 -receptors; assay: inhibition of histamine-stimulated acid secretion in the Heidenhain Pouch Dog; format: in vivo; conditions: intravenous administration, dose levels adjusted to produce similar peak responses

O=c1cc[nH]c(NCCCOc2cccc(CN3CCCCC3)c2)c1 [Example 1, 2-[3-[3-(Piperidinomethyl)phenoxy]propylaminc]-pyrid-4-one]
activity relative to 2-[2-(5-methylimidazol-4-ylmethylthio)ethylamino]pyrid-4-one (Example 16 of U.S. Pat. No. 3,932,644), lumen-perfused rat test [1]: over 100 times
activity relative to 2-[2-(5-methylimidazol-4-ylmethylthio)ethylamino]pyrid-4-one (Example 16 of U.S. Pat. No. 3,932,644), guinea pig atrium test [2]: over 100 times
duration of activity compared with cimetidine [3]: longer duration of activity than cimetidine

From patent publication US4738969A, “Substituted aminopyridones and aminoquinolones having histamine H2 -receptor blocking activity” (Smith Kline & French Laboratories Limited, priority 1983, dated 1988)
